Measurements published in ChEMBL document CHEMBL4831522, “Structure-Based Optimization of Quinazolines as Cruzain and TbrCATL Inhibitors” (J Med Chem, 2021).
The source made the active and inactive calls. No cut-off for these calls is given here.

Key:
Trypanosoma cruzi = assay: Trypanocidal activity against amastigotes form of Trypanosoma cruzi CA-I/72 infected in mouse C2C12 cells assessed as inhibition of parasite replication incubated for 48 hrs by DAPI staining based microscopic analysis; format: functional, organism-based; settings: CA-I/72, C2C12, 48 h
[1] = system: Trypanosoma brucei brucei; assay: Antitrypanosomal activity against Trypanosoma brucei brucei Lister 427 bloodstream forms measured after 72 hrs by SYBR green dye based assay; format: functional, organism-based; settings: Lister 427, 72 h
[2] = molecular target: Rhodesain (Trypanosoma brucei rhodesiense) (UniProt Q95PM0); assay: Inhibition of recombinant Trypanosoma brucei rhodesiense MVAT4 rhodesain expressed in Pichia pastoris at 100 uM using Z-FR-AMC as substrate by fluorometry relative to control
[3] = molecular target: Cruzipain (Trypanosoma cruzi) (UniProt P25779); assay: Inhibition of recombinant Trypanosoma cruzi cruzain at 100 uM using Z-FR-AMC as substrate by fluorometry relative to control
[4] = Selectivity index, ratio of CC50 for cytotoxicity against mouse C2C12 cells to EC50 for trypanocidal activity against Trypanosoma cruzi […] infected in mouse C2C12 cells; format: toxicity, cell-based; settings: read-out: Selectivity Index
[5] = Cytotoxicity against mouse C2C12 cells; format: cell-based
Cruzipain [6] = molecular target: T1, Cruzipain (Trypanosoma cruzi, UniProt P25779); assay: Inhibition of recombinant Trypanosoma cruzi cruzain using Z-FR-AMC as substrate by fluorometry
[7] = molecular target: Cruzipain (Trypanosoma cruzi) (UniProt P25779); assay: Inhibition of recombinant Trypanosoma cruzi cruzain using Z-FR-AMC as substrate when compound was preincubated for 5 mins in presence of BSA and 0.001% Triton-X100 followed by further incubation for 5 mins in presence of enzyme relative to control; settings: time 10.0 min
[8] = molecular target: Cruzipain (Trypanosoma cruzi) (UniProt P25779); assay: Inhibition of recombinant Trypanosoma cruzi cruzain using Z-FR-AMC as substrate and compound-enzyme complex preincubated for 5 mins in presence of 0.001% Triton-X100 by fluorometry relative to control
[9] = molecular target: Cruzipain (Trypanosoma cruzi) (UniProt P25779); assay: Inhibition of recombinant Trypanosoma cruzi cruzain using Z-FR-AMC as substrate and compound-enzyme complex preincubated for 5 mins in presence of 0.1% Triton-X100 by fluorometry relative to control
[10] = molecular target: Cruzipain (Trypanosoma cruzi) (UniProt P25779); assay: Inhibition of recombinant Trypanosoma cruzi cruzain using Z-FR-AMC as substrate and compound-enzyme complex preincubated for 5 mins in presence of 0.01% Triton-X100 by fluorometry relative to control
[11] = molecular target: Cruzipain (Trypanosoma cruzi) (UniProt P25779); assay: Competitive inhibition of Trypanosoma cruzi cruzain assessed as unchanged initial velocity up to 25 uM using varying levels of Z-FR-AMC as substrate by Michaelis-Menten analysis; settings: dose microM <=25
Cruzipain [12] = molecular target: T1, Cruzipain; assay: Competitive inhibition of Trypanosoma cruzi cruzain assessed as inhibition constant using varying levels of Z-FR-AMC as substrate by Michaelis-Menten analysis
[13] = molecular target: Cruzipain (Trypanosoma cruzi) (UniProt P25779); assay: Competitive inhibition of Trypanosoma cruzi cruzain assessed as increase in apparent Kapp up to 25 uM using varying levels of Z-FR-AMC as substrate by Michaelis-Menten analysis; settings: dose microM <=25
Rhodesain = Rhodesain (Trypanosoma brucei rhodesiense, UniProt Q95PM0); assay: Inhibition of recombinant Trypanosoma brucei rhodesiense MVAT4 rhodesain expressed in Pichia pastoris using Z-FR-AMC as substrate by fluorometry
[14] = molecular target: Cruzipain (Trypanosoma cruzi) (UniProt P25779); assay: Inhibition of recombinant Trypanosoma cruzi cruzain at 100 uM using Z-FR-AMC as substrate preincubated for 10 mins followed by substrate addition by fluorometry relative to control
[15] = molecular target: Rhodesain (Trypanosoma brucei rhodesiense) (UniProt Q95PM0); assay: Time dependent inhibition of recombinant Trypanosoma brucei rhodesiense MVAT4 rhodesain expressed in Pichia pastoris at 100 uM using Z-FR-AMC as substrate by fluorometry; settings: time 10.0 min
Cruzipain [16] = molecular target: T1, Cruzipain; assay: Inhibition of recombinant Trypanosoma cruzi cruzain using Z-FR-AMC as substrate preincubated for 10 mins followed by substrate addition by fluorometry
[17] = molecular target: Cruzipain (Trypanosoma cruzi) (UniProt P25779); assay: Time dependent inhibition of recombinant Trypanosoma cruzi cruzain at 100 uM using Z-FR-AMC as substrate by fluorometry; settings: time 10.0 min
[18] = molecular target: Rhodesain (Trypanosoma brucei rhodesiense) (UniProt Q95PM0); assay: Inhibition of recombinant Trypanosoma brucei rhodesiense MVAT4 rhodesain expressed in Pichia pastoris at 1 uM using Z-FR-AMC as substrate by fluorometry relative to control
[19] = molecular target: Rhodesain (Trypanosoma brucei rhodesiense) (UniProt Q95PM0); assay: Inhibition of recombinant Trypanosoma brucei rhodesiense MVAT4 rhodesain expressed in Pichia pastoris at 20 uM using Z-FR-AMC as substrate by fluorometry relative to control
[20] = molecular target: Cruzipain (Trypanosoma cruzi) (UniProt P25779); assay: Inhibition of recombinant Trypanosoma cruzi cruzain at 20 uM using Z-FR-AMC as substrate by fluorometry relative to control
[21] = molecular target: Cruzipain (Trypanosoma cruzi) (UniProt P25779); assay: Inhibition of recombinant Trypanosoma cruzi cruzain at 50 uM using Z-FR-AMC as substrate preincubated for 10 mins followed by substrate addition by fluorometry relative to control
[22] = molecular target: Rhodesain (Trypanosoma brucei rhodesiense) (UniProt Q95PM0); assay: Inhibition of recombinant Trypanosoma brucei rhodesiense MVAT4 rhodesain expressed in Pichia pastoris at 50 uM using Z-FR-AMC as substrate preincubated for 10 mins followed by substrate addition by fluorometry relative to control

T1 sequence (P25779 whole entry): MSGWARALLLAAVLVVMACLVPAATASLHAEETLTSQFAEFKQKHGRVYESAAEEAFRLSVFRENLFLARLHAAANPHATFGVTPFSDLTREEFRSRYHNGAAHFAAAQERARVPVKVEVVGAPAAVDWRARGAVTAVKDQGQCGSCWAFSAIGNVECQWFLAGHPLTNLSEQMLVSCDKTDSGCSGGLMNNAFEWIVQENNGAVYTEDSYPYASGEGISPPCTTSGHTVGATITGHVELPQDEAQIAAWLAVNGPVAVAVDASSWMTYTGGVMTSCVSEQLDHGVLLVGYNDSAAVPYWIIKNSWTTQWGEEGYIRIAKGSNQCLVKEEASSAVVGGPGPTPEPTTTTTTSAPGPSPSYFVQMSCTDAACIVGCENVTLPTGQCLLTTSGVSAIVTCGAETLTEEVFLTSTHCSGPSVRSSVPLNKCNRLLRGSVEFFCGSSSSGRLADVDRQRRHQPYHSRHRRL
Sequence of Cruzipain (Trypanosoma cruzi) (P25779 123-467 limits assumed): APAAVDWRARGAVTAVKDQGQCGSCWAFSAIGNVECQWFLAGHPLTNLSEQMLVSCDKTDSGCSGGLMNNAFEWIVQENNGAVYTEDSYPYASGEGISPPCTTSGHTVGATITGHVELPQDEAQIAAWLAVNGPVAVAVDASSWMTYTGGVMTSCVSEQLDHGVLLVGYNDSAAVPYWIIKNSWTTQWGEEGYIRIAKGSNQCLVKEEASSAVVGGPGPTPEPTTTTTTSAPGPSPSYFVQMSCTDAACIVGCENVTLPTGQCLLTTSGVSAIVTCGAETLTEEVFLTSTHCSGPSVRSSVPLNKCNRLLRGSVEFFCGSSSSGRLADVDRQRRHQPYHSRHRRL
Sequence of Rhodesain (Trypanosoma brucei rhodesiense) (Q95PM0 1-450): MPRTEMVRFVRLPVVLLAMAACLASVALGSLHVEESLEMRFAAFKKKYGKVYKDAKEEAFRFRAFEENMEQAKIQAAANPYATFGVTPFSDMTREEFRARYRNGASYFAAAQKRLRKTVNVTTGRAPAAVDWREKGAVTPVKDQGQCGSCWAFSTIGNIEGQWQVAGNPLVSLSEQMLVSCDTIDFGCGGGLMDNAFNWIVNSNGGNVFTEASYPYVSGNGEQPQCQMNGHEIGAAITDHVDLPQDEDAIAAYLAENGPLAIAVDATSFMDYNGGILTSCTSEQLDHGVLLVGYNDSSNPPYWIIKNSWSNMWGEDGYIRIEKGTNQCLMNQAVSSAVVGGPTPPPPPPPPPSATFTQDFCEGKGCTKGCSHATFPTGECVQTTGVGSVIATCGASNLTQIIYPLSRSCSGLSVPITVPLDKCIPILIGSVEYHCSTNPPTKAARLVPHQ
Sequence of Rhodesain (Q95PM0 whole entry): as the sequence (Q95PM0 1-450) above

Row | EC50 [1] | inhibition [2] | inhibition [3] | inhibition [7] | inhibition [8] | inhibition [9] | inhibition [10] | SMILES | EC50 (Trypanosoma cruzi) | selectivity ratio [4] | CC50 [5] | IC50 (Cruzipain [6]) | other results
1 | 2.7 µM | 29% | 84% | – | – | – | – | O=C(Nc1ccccc1)c1ccc(Nc2nc(NCCN3CCOCC3)c3ccccc3n2)cc1 | 0.8 µM | > 12 | > 10 µM | – | –
2 | 9 µM | 63% | 87% | 35% | 47% | 35% | 36% | OCCCNc1nc(Nc2ccc(Cl)cc2)nc2ccccc12 | 0.25 µM | > 40 | > 10 µM | 7.3 µM | –
3 | > 50 µM | 22% | 67% | – | – | – | – | OCCCNc1nc(NCCN2CCOCC2)c2ccccc2n1 | 35 µM | > 0.3 | > 10 µM | – | –
4 | 0.026 µM | – | – | – | – | – | – | N=C(N)c1ccc(OCCCCCOc2ccc(C(=N)N)cc2)cc1 [PENTAMIDINE] | – | – | – | – | –
5 | 15.1 µM | – | – | 65% | 83% | 31% | 50% | COc1ccc(Nc2nc(NCc3ccccc3)c3ccccc3n2)cc1 | 0.5 µM | 18 | 9 µM | – | inhibition [14]: 58%; TDI [15]: Active; IC50 (Cruzipain [16]): 52 µM; TDI [17]: Active
6 | > 50 µM | 10% | 100% | – | – | – | – | c1ccc(CNc2nc(Nc3ccccn3)nc3ccccc23)cc1 | 2.7 µM | > 4 | > 10 µM | – | –
7 | 23.8 µM | 11% | – | – | – | – | – | Cn1cnc2c(NCc3ccccc3)nc(Nc3ccccc3)nc21 | 2.2 µM | > 5 | > 10 µM | – | –
8 | – | – | – | – | – | – | – | CC(C)C[C@H](NC(=O)[C@@H]1O[C@H]1C(=O)O)C(=O)NCCCCN=C(N)N | – | – | – | 0.028 µM | inhibition [18]: 87%; IC50 (Rhodesain): 0.0037 µM
9 | 17.8 µM | 56% | 89% | 57% | 58% | 64% | 67% | OCCCNc1nc(Nc2cccc(F)c2)c2ccccc2n1 | 0.09 µM | > 109 | > 10 µM | 25 µM | –
10 | > 50 µM | 36% | 85% | 42% | 49% | 73% | 63% | O=C(c1ccc(Nc2nc(NCCN3CCOCC3)c3ccccc3n2)cc1)N1CCOCC1 | 15 µM | > 1 | > 10 µM | 13.5 µM | –
11 | – | – | – | – | – | – | – | O=C(Cn1ccnc1[N+](=O)[O-])NCc1ccccc1 [BENZNIDAZOLE] | 5.4 µM | > 9 | > 50 µM | – | –
12 | 9 µM | 17% | 46% | – | – | – | – | Fc1cccc(Nc2nc(Nc3ccccc3)nc3ccccc23)c1 | 0.07 µM | > 150 | > 10 µM | – | –
13 | 25 µM | 10% | – | – | – | – | – | Clc1ccc(Nc2nccc(NCc3ccccc3)n2)cc1 | 7 µM | > 1 | > 10 µM | – | inhibition [19]: 10%; inhibition [20]: 34%
14 | > 50 µM | 6% | – | – | – | – | – | c1ccc(CNc2ccnc(Nc3ccccc3)n2)cc1 | 7 µM | > 1 | > 10 µM | – | –
15 | > 50 µM | 47% | 100% | 30% | 25% | 33% | 31% | OCCCNc1nc(NCc2ccccc2)c2ccccc2n1 | 0.5 µM | > 193 | > 10 µM | 22 µM | –
16 | 23.6 µM | 48% | 95% | 62% | 75% | 80% | 67% | Clc1ccc(Nc2nc(NCCN3CCOCC3)c3ccccc3n2)cc1 | 370 µM | > 27 | > 10 µM | 2.5 µM | –
17 | > 50 µM | 62% | 90% | 51% | 53% | 69% | 53% | O=C(c1ccc(Nc2nc(NCCCO)c3ccccc3n2)cc1)N1CCOCC1 | 22 µM | > 0.5 | > 10 µM | 15 µM | –
18 | 16.3 µM | – | – | 62% | 71% | 81% | 84% | c1ccc(Nc2nc(Nc3ccccc3)c3ccccc3n2)cc1 | 0.9 µM | > 11 | > 10 µM | – | IC50 (Cruzipain [16]): 14 µM; inhibition [21]: 30%; inhibition [22]: 14%
19 | > 50 µM | – | – | 8% | 100% | 4% | 54% | O=C(Nc1ccccc1)c1ccc(Nc2nc(NCc3ccccc3)c3ccccc3n2)cc1 | 1.8 µM | > 6 | > 10 µM | – | –
20 | 18.4 µM | 5% | – | – | – | – | – | Cn1cnc2c(NCc3ccccc3)nc(Nc3ccc(Cl)cc3)nc21 | 12 µM | > 1 | > 10 µM | – | –

Row | SMILES | EC50 [1] | inhibition [2] | inhibition [3] | inhibition [7] | inhibition [8] | inhibition [9] | inhibition [10] | EC50 (Trypanosoma cruzi) | selectivity ratio [4] | CC50 [5] | IC50 (Cruzipain [6]) | other results
21 | c1ccc(CNc2nc(Nc3ccccc3)nc3ccccc23)cc1 | 17.5 µM | 77% | – | 43% | – | – | 50% | 0.047 µM | > 211 | > 10 µM | 8 µM | inhibition [11]: Active; Ki (Cruzipain [12]): 1.7 µM; inhibition [13]: Active; IC50 (Rhodesain): 17.5 µM
22 | O=C(c1ccc(Nc2nc(NCc3ccccc3)c3ccccc3n2)cc1)N1CCOCC1 | > 50 µM | 7% | 99% | 46% | 45% | 49% | 53% | 0.8 µM | > 12 | > 10 µM | 7 µM | inhibition [11]: Active; Ki (Cruzipain [12]): 3.2 µM; inhibition [13]: Active; IC50 (Rhodesain): 22 µM
23 | Oc1cccc(Nc2nc(NCc3ccccc3)c3ccccc3n2)c1 | 13.8 µM | 98% | 100% | 44% | 65% | 33% | 54% | 0.93 µM | > 11 | 10 µM | 18 µM | IC50 (Rhodesain): 26 µM
24 | Oc1ccc(Nc2nc(NCc3ccccc3)c3ccccc3n2)cc1 | > 50 µM | 95% | 100% | 55% | 81% | 40% | 56% | 5.9 µM | > 2 | > 10 µM | 18 µM | IC50 (Rhodesain): 23 µM
25 | c1ccc(CNc2nc(Nc3nccs3)nc3ccccc23)cc1 | > 50 µM | 100% | 100% | 53% | 100% | 22% | 60% | 5.6 µM | > 2 | > 10 µM | 16 µM | IC50 (Rhodesain): 12.5 µM
26 | Clc1ccc(Nc2nc(NCc3ccccc3)c3ccccc3n2)cc1 | 93 µM | – | – | 35% | 42% | 1% | 48% | 0.5 µM | 21 | 10 µM | 2.4 µM | IC50 (Rhodesain): 33 µM; inhibition [20]: 78%
